Laboratory results reported in PubChem BioAssay (NCI).
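These data come from cells grown in 96-well plates and exposed to compound for 48 hours at five concentrations. Here, GI50 denotes the concentration required for 50% inhibition of growth. TGI is the concentration that stops growth completely.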

Tests used:
Assay in all cases: NCI-60 cell line screen, 48 h
HOP-62 NSCLC = system: HOP-62 NSCLC
ACHN renal = system: ACHN renal
786-0 renal = system: 786-0 renal
LOX IMVI melanoma = system: LOX IMVI melanoma
T-47D breast = system: T-47D breast
HS 578T breast = system: HS 578T breast
MALME-3M melanoma = system: MALME-3M melanoma
A549 NSCLC = system: A549 NSCLC
M14 melanoma = system: M14 melanoma
OVCAR-4 ovarian = system: OVCAR-4 ovarian
MCF7 breast = system: MCF7 breast
SNB-75 CNS = system: SNB-75 CNS
MDA-MB-231 breast = system: MDA-MB-231 breast
NCI-H23 lung = system: NCI-H23 lung
OVCAR-5 ovarian = system: OVCAR-5 ovarian
HCT-15 colon = system: HCT-15 colon
HCT-116 colon = system: HCT-116 colon
CCRF-CEM leukemia = system: CCRF-CEM leukemia
SNB-19 CNS = system: SNB-19 CNS
OVCAR-8 ovarian = system: OVCAR-8 ovarian
NCI-H460 lung = system: NCI-H460 lung
UACC-257 melanoma = system: UACC-257 melanoma
NCI-H226 lung = system: NCI-H226 lung
BT-549 breast = system: BT-549 breast
SK-MEL-2 melanoma = system: SK-MEL-2 melanoma
SF-268 CNS = system: SF-268 CNS
HL-60(TB) leukemia = system: HL-60(TB) leukemia
IGROV1 ovarian = system: IGROV1 ovarian
SR leukemia = system: SR leukemia
UACC-62 melanoma = system: UACC-62 melanoma
U251 CNS = system: U251 CNS
A498 renal = system: A498 renal
SF-295 CNS = system: SF-295 CNS
SF-539 CNS = system: SF-539 CNS
HOP-92 NSCLC = system: HOP-92 NSCLC
RPMI-8226 leukemia = system: RPMI-8226 leukemia
DU-145 prostate = system: DU-145 prostate
RXF 393 renal = system: RXF 393 renal
CAKI-1 renal = system: CAKI-1 renal
NCI/ADR-RES ovarian = system: NCI/ADR-RES ovarian
KM12 colon = system: KM12 colon
MOLT-4 leukemia = system: MOLT-4 leukemia
K-562 leukemia = system: K-562 leukemia
SK-OV-3 ovarian = system: SK-OV-3 ovarian
SW-620 colon = system: SW-620 colon
MDA-MB-435 = system: MDA-MB-435
OVCAR-3 ovarian = system: OVCAR-3 ovarian
SK-MEL-28 melanoma = system: SK-MEL-28 melanoma
UO-31 renal = system: UO-31 renal
NCI-H522 lung = system: NCI-H522 lung
HT29 colon = system: HT29 colon
SK-MEL-5 melanoma = system: SK-MEL-5 melanoma
TK-10 renal = system: TK-10 renal
COLO 205 colon = system: COLO 205 colon
PC-3 prostate = system: PC-3 prostate
HCC-2998 colon = system: HCC-2998 colon
SN12C renal = system: SN12C renal
EKVX NSCLC = system: EKVX NSCLC

Structure (SMILES): Cc1ccc(N=C/C=C(\Nc2ccc(C)cc2)c2ccc3ccccc3c2)cc1
- TGI (HOP-62 NSCLC): 5400 nM
- TGI (ACHN renal): 7770 nM
- TGI (786-0 renal): 3380 nM
- TGI (LOX IMVI melanoma): 1910 nM
- TGI (T-47D breast): 23700 nM
- TGI (HS 578T breast): 36800 nM
- TGI (MALME-3M melanoma): 14000 nM
- TGI (A549 NSCLC): 13200 nM
- TGI (M14 melanoma): 8690 nM
- TGI (OVCAR-4 ovarian): 11200 nM
- TGI (MCF7 breast): 16500 nM
- TGI (SNB-75 CNS): 6160 nM
- TGI (MDA-MB-231 breast): 2120 nM
- TGI (NCI-H23 lung): 3900 nM
- TGI (OVCAR-5 ovarian): 6240 nM
- TGI (HCT-15 colon): 4240 nM
- TGI (HCT-116 colon): 2990 nM
- TGI (CCRF-CEM leukemia): 558 nM
- TGI (SNB-19 CNS): 15400 nM
- TGI (OVCAR-8 ovarian): > 100000 nM
- TGI (NCI-H460 lung): 13800 nM
- TGI (UACC-257 melanoma): 16600 nM
- TGI (NCI-H226 lung): 4480 nM
- TGI (BT-549 breast): 13600 nM
- TGI (SK-MEL-2 melanoma): 11200 nM
- TGI (SF-268 CNS): 28800 nM
- TGI (HL-60(TB) leukemia): 2020 nM
- TGI (IGROV1 ovarian): 15100 nM
- TGI (SR leukemia): 1440 nM
- TGI (UACC-62 melanoma): 1300 nM
- TGI (U251 CNS): 7230 nM
- TGI (A498 renal): 24200 nM
- TGI (SF-295 CNS): 3900 nM
- TGI (SF-539 CNS): 3450 nM
- TGI (HOP-92 NSCLC): 27600 nM
- TGI (RPMI-8226 leukemia): 2560 nM
- TGI (DU-145 prostate): 10700 nM
- TGI (RXF 393 renal): 8520 nM
- TGI (CAKI-1 renal): 12700 nM
- TGI (NCI/ADR-RES ovarian): 2160 nM
- TGI (KM12 colon): 4430 nM
- TGI (MOLT-4 leukemia): 533 nM
- TGI (K-562 leukemia): 2720 nM
- TGI (SK-OV-3 ovarian): 9710 nM
- TGI (SW-620 colon): 24900 nM
- TGI (MDA-MB-435): 493 nM
- TGI (OVCAR-3 ovarian): 11200 nM
- TGI (SK-MEL-28 melanoma): 11200 nM
- TGI (UO-31 renal): 13100 nM
- TGI (NCI-H522 lung): 11000 nM
- TGI (HT29 colon): 2320 nM
- TGI (SK-MEL-5 melanoma): 12000 nM
- TGI (TK-10 renal): 6820 nM
- TGI (COLO 205 colon): 2380 nM
- TGI (PC-3 prostate): 18000 nM

Structure (SMILES): CC(=O)c1c[nH]c2ccc(-c3ccnc(Nc4ccc(NC(=O)C5CCCC5)c(CN5CCOCC5)c4)n3)cc12
- GI50 (HOP-62 NSCLC): 40.3 nM
- TGI (HOP-62 NSCLC): 3520 nM
- GI50 (ACHN renal): 30.5 nM
- GI50 (786-0 renal): 31 nM
- TGI (786-0 renal): 2630 nM
- GI50 (LOX IMVI melanoma): 13.2 nM
- TGI (LOX IMVI melanoma): 47.9 nM
- GI50 (T-47D breast): 37.9 nM
- GI50 (HS 578T breast): 20.7 nM
- TGI (HS 578T breast): 105 nM
- GI50 (MALME-3M melanoma): 43.1 nM
- TGI (MALME-3M melanoma): 151 nM
- GI50 (A549 NSCLC): 31.2 nM
- TGI (A549 NSCLC): 1540 nM
- GI50 (HCC-2998 colon): 44.4 nM
- TGI (HCC-2998 colon): 600 nM
- GI50 (M14 melanoma): 27.4 nM
- TGI (M14 melanoma): 95.5 nM
- GI50 (OVCAR-4 ovarian): 45.3 nM
- TGI (OVCAR-4 ovarian): 573 nM
- GI50 (MCF7 breast): 30.4 nM
- TGI (MCF7 breast): 174 nM
- TGI (SNB-75 CNS): 42 nM
- GI50 (MDA-MB-231 breast): 31.5 nM
- TGI (MDA-MB-231 breast): 294 nM
- GI50 (NCI-H23 lung): 34.4 nM
- TGI (NCI-H23 lung): 364 nM
- GI50 (OVCAR-5 ovarian): 29.6 nM
- TGI (OVCAR-5 ovarian): 222 nM
- GI50 (HCT-15 colon): 55.8 nM
- TGI (HCT-15 colon): 758 nM
- GI50 (HCT-116 colon): 13.8 nM
- TGI (HCT-116 colon): 953 nM
- GI50 (CCRF-CEM leukemia): 29.4 nM
- GI50 (SNB-19 CNS): 41 nM
- TGI (SNB-19 CNS): 7960 nM
- GI50 (OVCAR-8 ovarian): 36.2 nM
- TGI (OVCAR-8 ovarian): > 100000 nM
- GI50 (NCI-H460 lung): 33 nM
- TGI (NCI-H460 lung): 125 nM
- GI50 (UACC-257 melanoma): 34.9 nM
- TGI (UACC-257 melanoma): 175 nM
- GI50 (NCI-H226 lung): 29.8 nM
- TGI (NCI-H226 lung): 284 nM
- GI50 (BT-549 breast): 32.8 nM
- TGI (BT-549 breast): 904 nM
- GI50 (SK-MEL-2 melanoma): 22.2 nM
- TGI (SK-MEL-2 melanoma): 58.5 nM
- GI50 (SF-268 CNS): 33 nM
- TGI (SF-268 CNS): 159 nM
- GI50 (HL-60(TB) leukemia): 25.3 nM
- TGI (HL-60(TB) leukemia): 72.7 nM
- GI50 (IGROV1 ovarian): 36.6 nM
- TGI (IGROV1 ovarian): 377 nM
- GI50 (UACC-62 melanoma): 20.5 nM
- TGI (UACC-62 melanoma): 48.1 nM
- GI50 (U251 CNS): 31.6 nM
- GI50 (A498 renal): 20.4 nM
- TGI (A498 renal): 55.8 nM
- GI50 (SF-295 CNS): 39.7 nM
- TGI (SF-295 CNS): 611 nM
- GI50 (SF-539 CNS): 22.9 nM
- TGI (SF-539 CNS): 68.1 nM
- GI50 (HOP-92 NSCLC): 28.4 nM
- TGI (HOP-92 NSCLC): 365 nM
- GI50 (RPMI-8226 leukemia): 45 nM
- TGI (RPMI-8226 leukemia): 262 nM
- GI50 (DU-145 prostate): 36.2 nM
- TGI (DU-145 prostate): 2380 nM
- GI50 (SN12C renal): 30.1 nM
- TGI (SN12C renal): 3970 nM
- GI50 (RXF 393 renal): 11.4 nM
- TGI (RXF 393 renal): 36 nM
- GI50 (CAKI-1 renal): 16.8 nM
- TGI (CAKI-1 renal): 561 nM
- GI50 (NCI/ADR-RES ovarian): 306 nM
- TGI (NCI/ADR-RES ovarian): 2960 nM
- GI50 (KM12 colon): 25.8 nM
- TGI (KM12 colon): 141 nM
- GI50 (MOLT-4 leukemia): 28.7 nM
- TGI (MOLT-4 leukemia): 474 nM
- GI50 (K-562 leukemia): 41 nM
- TGI (K-562 leukemia): > 100000 nM
- GI50 (SK-OV-3 ovarian): 45.4 nM
- TGI (SK-OV-3 ovarian): > 100000 nM
- GI50 (SW-620 colon): 38.7 nM
- TGI (SW-620 colon): 551 nM
- GI50 (MDA-MB-435): 28.6 nM
- TGI (MDA-MB-435): 121 nM
- GI50 (OVCAR-3 ovarian): 26.7 nM
- TGI (OVCAR-3 ovarian): 678 nM
- GI50 (SK-MEL-28 melanoma): 40.4 nM
- TGI (SK-MEL-28 melanoma): 270 nM
- GI50 (UO-31 renal): 27.3 nM
- TGI (UO-31 renal): 108 nM
- GI50 (NCI-H522 lung): 43.9 nM
- TGI (NCI-H522 lung): 309 nM
- GI50 (HT29 colon): 22.6 nM
- TGI (HT29 colon): 2250 nM
- GI50 (SK-MEL-5 melanoma): 24.6 nM
- TGI (SK-MEL-5 melanoma): 68.5 nM
- GI50 (EKVX NSCLC): 38.2 nM
- TGI (EKVX NSCLC): 457 nM
- GI50 (TK-10 renal): 27.4 nM
- TGI (TK-10 renal): 406 nM
- GI50 (COLO 205 colon): 19.4 nM
- TGI (COLO 205 colon): 67.9 nM
- GI50 (PC-3 prostate): 32.5 nM
- TGI (PC-3 prostate): 1050 nM
